The text below walks through data of ChEMBL document CHEMBL4364241, “Developments in the anticancer activity of structurally modified curcumin: An up-to-date review” (Eur J Med Chem, 2019).

What is called IC50 is the concentration that gives 50% inhibition.

For assay [1], the target named is Tyrosine-protein kinase ABL1 (Homo sapiens, UniProt P00519, T315I). Nature of the assay: Inhibition of ABL T315I mutant (unknown origin).
The target in assay [2] is Tyrosine-protein kinase ABL1 (Homo sapiens, UniProt P00519, Q252H). Put plainly: Inhibition of ABL Q252H mutant (unknown origin).
In assay [3] the target is Tyrosine-protein kinase ABL1 (Homo sapiens, UniProt P00519). Nature of the assay: Inhibition of Wild type ABL (unknown origin).
The target in assay [4] is Tyrosine-protein kinase ABL1 (Homo sapiens, UniProt P00519, Y253F). Put plainly: Inhibition of ABL Y253F mutant (unknown origin).
In assay [5] the test system is NCI-H460. Put plainly: Cytotoxicity against human H460 cells by MTT assay. It counts as functional, cell-based. For orientation: Tetrazolium assays rely on reduction of a dye to a coloured formazan, in cell work by metabolically active cells.
The subject of assay [6] is MCF7. Put plainly: Cytotoxicity against human MCF7 cells by MTT assay. It counts as functional, cell-based.
Assay [7] has as its system PC-3. Nature of the assay: Cytotoxicity against human PC3 cells by MTT assay. It counts as functional, cell-based.
Assay [8] deals with A549. Nature of the assay: Cytotoxicity against human A549 Cells by MTT assay. It counts as functional, cell-based.
The subject of assay [9] is PANC-1. Nature of the assay: Cytotoxicity against human PANC1 cells by MTT assay. It counts as functional, cell-based.
Assay [10] relates to HT-29. Put plainly: Cytotoxicity against human HT-29 cells by MTT assay. It counts as functional, cell-based.
In assay [11] the test system is MIA PaCa-2. Put plainly: Cytotoxicity against human MIAPaCa2 cells by MTT assay. It counts as functional, cell-based.
Assay [12] relates to HeLa. Nature of the assay: Cytotoxicity against human HeLa Cells. It counts as functional, cell-based.
Assay [13] has as its system HepG2. Nature of the assay: Cytotoxicity against human HepG2 Cells. It counts as functional, cell-based.
For assay [14], the system named is L02. Nature of the assay: Cytotoxicity against human LO2 Cells. It counts as functional, cell-based.
Assay [15] deals with K562. Put plainly: Antiproliferative activity against human K562 Cells. It counts as functional, cell-based.
The test system of assay [16] is THP-1. Put plainly: Cytotoxicity against human THP1 Cells. It counts as functional, cell-based.
The subject of assay [17] is RWPE-1. Put plainly: Cytotoxicity against human RWPE1 cells. It counts as functional, cell-based.
For assay [18], the system named is BXPC-3. Put plainly: Cytotoxicity against human BxPC3 cells. It counts as functional, cell-based.
For assay [19], the system named is PC-3. Nature of the assay: Cytotoxicity against human PC3 cells. It counts as functional, cell-based.
Assay [20] deals with HT-29. Put plainly: Cytotoxicity against human HT-29 Cells. It counts as functional, cell-based.
Assay [21] deals with NCI-H1299. Put plainly: Cytotoxicity against human H1299 cells. It counts as functional, cell-based.
A short description of assay [22]: Antiproliferative activity against human K562/G01 cells. It counts as functional, cell-based.

In the case of `COc1cc(C=C(C(=O)/C=C/c2ccc(O)c(OC)c2)C(=O)/C=C/c2ccc(O)c(OC)c2)ccc1O`, the IC50 came to 67.3 nM in assay [1], 185 nM in [2], 83.3 nM in assay [3] and 79.8 nM in [4].

With `CN1CC(Cc2ccc(N(C)C)cc2[N+](=O)[O-])C(=NO)C(Cc2ccc(N(C)C)cc2[N+](=O)[O-])C1` (stereo not drawn), the IC50 in [5] is 80 nM; in [6], 90 nM; in [7] it was 80 nM; in [8], 90 nM; in assay [9], 100 nM; in [10], 50 nM. The compound also registered an IC50 in assay [11] of 70 nM.

Consider `C/C(=C/C(=O)c1ccccc1)Nc1cccc(/C=C2\CN(C)C/C(=C\c3cccc(N/C(C)=C/C(=O)c4ccccc4)c3)C2=O)c1`, for which the half-inhibitory concentration (IC50) in assay [12] is greater than 10000 nM; in [13] it was 5520 nM; in [14] it was 13100 nM; in [15], 4800 nM; in [16] it was 1170 nM.

In the case of `COc1cc(/C=C2/C(=O)/C(=C/c3cc(OC)c(OC)c(OC)c3)c3ccccc32)cc(OC)c1OC`, the IC50 in assay [17] was 9120 nM; in assay [18], 990 nM; in assay [19], 640 nM; in assay [20], 980 nM; in assay [21], 950 nM.

As to `COc1cc(/C=C/C(=O)C(=Cc2ccncc2)C(=O)/C=C/c2ccc(O)c(OC)c2)ccc1O`, the IC50 turned out to be 600 nM in [22] and 1100 nM in [15].
